Values joined by “and” are separate entries in the source; they are usually repeats but may differ in a detail not shown here. Equal entries are not always repeated. “Also recorded” adds a separate entry of the source.
Legend:
[1] = test system: Bcl-XL:LD3 complex (CDH-1); experiment: SPR drug competition assay, Bcl-XL:LD3 (CDH-1) with Drug-1; assay type: binding; settings: Fig S10d
Method: Drug IC50s of disrupting CDH heterodimers were measured on a Biacore 8 K device. 4 µM of LD3 and its variants (LD3_v1-3) or LD6 were mixed with their respective drugs. […] Multiple-cycle injection of the protein-drug complex with different stoichiometry were performed to measure the decrease of maximal RUs (response units at 120 sec). Apparent IC50s were obtained using the inhibition versus response fitting models in prism software (Version 8.3.0).
Apparent IC50s of SPR drug competition assay were calculated using three-parameter nonlinear regression in GraphPad Prism (Version 8.3.0). Representative data of cellular assays are presented as individual values and mean values (bars). n = 3 refers to biological replicates. All IC50/EC50 values of cellular assays (CDH-TF, CDH-GEMS, AIR-TF and AIR-GEMS) reported were calculated using four-parameter nonlinear regression ± s.d. […]
Readouts from the
sensorgrams were extracted at the time point 120 s to calculate the IC50s using a three-parameter

[2] = target: T1, LD3 in the presence of Drug-1 (Homo sapiens, UniProt Q07817, DEL45-84/F105I/R102E); experiment: SPR pre-screening and competition of Drug-1 resistant Bcl-XL mutants binding LD3; settings: Fig S10d
T1 construct: 6xHis (N); made in house; host or cells: E. coli BL21(DE3)
T1 sequence (Q07817 with tags, fused parts or gaps DEL45-84/R102E/F105I limits assumed): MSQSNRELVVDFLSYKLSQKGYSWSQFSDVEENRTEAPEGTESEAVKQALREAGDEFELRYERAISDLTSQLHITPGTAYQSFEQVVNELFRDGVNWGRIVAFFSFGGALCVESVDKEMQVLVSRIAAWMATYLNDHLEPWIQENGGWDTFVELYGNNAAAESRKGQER
Method: Supplementary Figure 10: Biophysical and cellular characterization of designed Drug-1- […]
a) Pre-screening of Drug-1 resistant Bcl-XL mutants by SPR. 5 µM of Bcl-XL and five mutants were mixed with 10 µM of Drug-1 and injected over the LD3 immobilized chip to analyse the binding response. […]
dilutions of Drug-1 were pre-mixed with 4 µM LD3 and injected over iBcl-XL_v3 immobilized chip to collect the response. c) Dissociation constant measurement of iBcl-XL_v3 and LD3. Sensorgrams are in black dashed curves and the fitted curves in solid red lines. Kd was using a 1:1 binding model. d) […]
normalized to the positive control (DMSO group). […]

[3] = target: Bcl2:LD3 complex (CDH-2) (Homo sapiens, UniProt P10415); experiment: SEC-MALS drug-induced monomerization of Bcl2:LD3; settings: 50 µM proteins, 100 µM drug
Sequence of Bcl2:LD3 complex (CDH-2) (P10415 with tags, fused parts or gaps): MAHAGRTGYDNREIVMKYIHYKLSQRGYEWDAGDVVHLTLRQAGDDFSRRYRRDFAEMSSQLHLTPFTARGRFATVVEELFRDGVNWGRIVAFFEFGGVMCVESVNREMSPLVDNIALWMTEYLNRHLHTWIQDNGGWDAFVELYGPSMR
Method: LD6 was further characterized by Size Exclusion Chromatography coupled to Light Scattering (SEC-MALS) for solution behavior, and to study dimerization and drug-induced monomerization properties. LD6 was injected at 50–100 µM into a Superdex^TM 75 300/10 GL column (GE Healthcare) using a high-performance liquid chromatography system (Ultimate 3000, Thermo Scientific) at a flow rate of 0.5 ml/min. The UV spectrum at 280 nm was collected along with static light scatter signal by a MALS device (miniDAWN TREOS, Wyatt). […] Then the mixtures were treated with either 100 µM (two-fold excess) of the corresponding drugs or the same volume of DMSO to detect complex formation and forced dissociation in SEC-MALS. The light scatter signal of the sample was collected from three different angles and the results were analyzed using the ASTRA software (version 6.1, Wyatt).
Supplementary Figure 1: Biophysical characterization of CDH-2.
Drug concentrations from 0.01 nM to
10 µM were pre-incubated with 4 µM LD3, then the mixtures were injected over a Bcl2-immobilized chip.
Response units reflect the remaining interaction of Bcl2 and LD3 in the presence of serial diluted Drug-
2. d) SEC-MALS analysis of CDH-2 showing Bcl2:LD3 complex with DMSO (black trace) and Bcl2:LD3
and LD3 (16 kDa) eluted around 22 minutes.
(1 picture or pasted object on this page, not shown here)

[4] = test system: JAK/STAT pathway SEAP expression in HEK293T cells; experiment: AIR-GEMS ON-switch SEAP assay; settings: Homo sapiens, HEK-293T, read-out: EC50, AIR-2-GEMS activation by Drug-2
Method: We fused the AIR components in the ectodomains of the GEMS and measured SEAP activity as a reporter for drug-triggered activation.
HEK293T cells were maintained in DMEM medium with 10% FBS (Gibco) and Pen/Strep (Thermo Fisher). Cells were maintained and split every two days at around 80% confluence. HEK293T cells were seeded 24 h before transfection, and transfected with the lipofectamine 3000 kit (Thermo Fisher). Plasmids were cotransfected according to the Table S7. For the drug OFF-switch experiments, drugs were added 12 h post transfection and incubated with cells for 24 h before the SEAP detection assay.
Bcl2 mutants were cloned into the AIR-GEMS

CN(C)CC#Cc1ccc(OCCCc2sc(N3CCc4cccc(C(=O)Nc5nc6ccccc6s5)c4C3)nc2C(=O)O)c(F)c1 [Drug-1, A-1155463]
IC50 ([1]; Bcl-Xl:LD3, best-fit, inhibitor vs. response (three parameters)): 0.22 nM | logIC50 ([1]; Bcl-Xl:LD3, best-fit, three parameters, Drug-1 in nM): -0.658 | Bcl-Xl:LD3 response ([1]; Drug-1 0.001 nM): 275.326 and 251.306 and 243.642 | Bcl-Xl:LD3 response ([1]; Drug-1 0.005 nM): 242.985 and 229.287 and 224.833 | Bcl-Xl:LD3 response ([1]; Drug-1 0.01 nM): 223.576 and 215.113 and 215.946 | Bcl-Xl:LD3 response ([1]; Drug-1 0.05 nM): 225.211 and 226.402 and 224.55 | Bcl-Xl:LD3 response ([1]; Drug-1 0.1 nM): 186.039 and 182.298 and 182.078 | Bcl-Xl:LD3 response ([1]; Drug-1 0.5 nM): 123.883 and 120.417 and 119.693 | Bcl-Xl:LD3 response ([1]; Drug-1 1 nM): 121.627 and 115.582 and 111.718 | Bcl-Xl:LD3 response ([1]; Drug-1 5 nM): 122.215 and 115.477 and 118.457 | Bcl-Xl:LD3 response ([1]; Drug-1 10 nM): 92.0281 and 92.2496 and 88.1833 | Bcl-Xl:LD3 response ([1]; Drug-1 50 nM): 84.1354 and 86.416 and 84.392 | Bcl-Xl:LD3 response ([1]; Drug-1 100 nM): 81.6073 and 77.884 and 79.2329 | Bcl-Xl:LD3 response ([1]; Drug-1 500 nM): 65.1408 and 62.8874 and 62.5965 | Bcl-Xl:LD3 response ([1]; Drug-1 1000 nM): 42.6601 and 38.7292 and 40.0074 | iBcl-XL_v3 response ([2]; Drug-1 0.001 nM): 174.876 and 175.206 and 177.174 | iBcl-XL_v3 response ([2]; Drug-1 0.01 nM): 215.202 and 222.394 and 221.188 | iBcl-XL_v3 response ([2]; Drug-1 0.05 nM): 207.736 and 204.171 and 203.036 | iBcl-XL_v3 response ([2]; Drug-1 0.1 nM): 189.507 and 193.343 and 194.134 | iBcl-XL_v3 response ([2]; Drug-1 0.5 nM): 204.985 and 206.922 and 206.979 | iBcl-XL_v3 response ([2]; Drug-1 1 nM): 184.864 and 185.609 and 186.635 | iBcl-XL_v3 response ([2]; Drug-1 10 nM): 194.117 and 193.916 and 200.456 | iBcl-XL_v3 response ([2]; Drug-1 50 nM): 193.965 and 195.069 and 198.505 | iBcl-XL_v3 response ([2]; Drug-1 100 nM): 183.254 and 186.244 and 183.907 | iBcl-XL_v3 response ([2]; Drug-1 500 nM): 165.059 and 166.616 and 165.103 | iBcl-XL_v3 response ([2]; Drug-1 1000 nM): 154.762 and 156.9 and 154.341 | IC50 ([2]; iBcl-XL_v3, best-fit, inhibitor vs. response (three parameters)): 705 nM | logIC50 ([2]; iBcl-XL_v3, best-fit, three parameters, Drug-1 in nM): 2.848

CC1(C)CCC(CN2CCN(c3ccc(C(=O)NS(=O)(=O)c4ccc(NCC5CCOCC5)c([N+](=O)[O-])c4)c(Oc4cnc5[nH]ccc5c4)c3)CC2)=C(c2ccc(Cl)cc2)C1 [Drug-2, Venetoclax]
disruption of Bcl2:LD3 complex by SEC-MALS [3]: effectively disrupts; also recorded: did not result in complex formation | EC50 [4]: 0.5 nM
